Results: ChEMBL document CHEMBL4602643, “Anti-inflammatory activities of isopimara-8(14),-15-diene diterpenoids and mode of action of kaempulchraols P and Q from Kaempferia pulchra rhizomes” (Bioorg Med Chem Lett, 2020)
pIC50: −log10 of the molar value.

Legend:
[1] = tested on: RAW264.7; test: Anti-inflammatory activity in mouse RAW264.7 cells assessed as inhibition of LPS-induced NO production at 100 uM relative to control; format: functional
[2] = tested on: RAW264.7; test: Anti-inflammatory activity in mouse RAW264.7 cells assessed as inhibition of LPS-induced NO production at 5 uM relative to control; format: functional
[3] = tested on: RAW264.7; test: Anti-inflammatory activity in mouse RAW264.7 cells assessed as inhibition of LPS-induced NO production; format: functional, cell-based
[4] = Cytotoxicity against mouse RAW264.7 cells assessed as cell survival at 5 uM; format: cell-based; settings: read-out: Activity
[5] = Cytotoxicity against mouse RAW264.7 cells assessed as cell survival at 100 uM; format: cell-based; settings: read-out: Activity
[6] = tested on: RAW264.7; test: Anti-inflammatory activity in mouse RAW264.7 cells assessed as inhibition of LPS-induced NO production at 50 uM relative to control; format: functional
[7] = Cytotoxicity against mouse RAW264.7 cells assessed as cell survival at 50 uM; format: cell-based; settings: read-out: Activity
[8] = tested on: RAW264.7; test: Anti-inflammatory activity in mouse RAW264.7 cells assessed as inhibition of LPS-induced NO production at 10 uM relative to control; format: functional
[9] = Cytotoxicity against mouse RAW264.7 cells assessed as cell survival at 10 uM; format: cell-based; settings: read-out: Activity
[10] = tested on: J774.1; test: Anti-inflammatory activity in mouse J774.1 cells assessed as inhibition of LPS-induced NO production preincubated for 2 hrs before LPS stimulation and measured after 24 hrs by Griess method; format: functional, cell-based

SMILES | inhibition at 100 µM [1] | inhibition at 5 µM [2] | pIC50 [3] | viability at 5 µM [4] | viability at 100 µM [5] | inhibition at 50 µM [6] | viability at 50 µM [7] | inhibition at 10 µM [8] | viability at 10 µM [9] | pIC50 [10]
C=C[C@]1(C)C=C2[C@H](OC(C)=O)C[C@H]3C(C)(C)CCC[C@]3(C)[C@@]2(O)CC1 | 80.5% | 20.7% | 4.38 | 71.5% | 4.72% | 59.5% | 88.7% | 14.9% | 98.3% | 
C=C[C@]1(C)C=C2CC[C@H]3C(C)(C)CC[C@H](O)[C@]3(C)[C@H]2CC1 | 80.5% | 27.2% | 4.27 | 57.7% | 3.78% | 47.5% | 67.6% | 14% | 77.4% | 
C=C[C@]1(C)C=C2C(=O)C[C@H]3C(C)(C)CC[C@H](O)[C@]3(C)[C@H]2CC1 | 35.5% | 16.5% | < 4.00 | 86.6% | 77.8% | 25.1% | 86.8% | 7.8% | 92.4% | 
C=C[C@]1(C)C=C2C[C@@H](O)[C@H]3C(C)(C)CC[C@H](O)[C@]3(C)[C@H]2CC1 | 26.3% | 17.4% | < 4.00 | 72.9% | 67% | 35.2% | 52.2% | 17.7% | 65.7% | 
CNC(=N)NCCC[C@H](N)C(=O)O [TILARGININE ACETATE] | 58.2% | 22.8% | 4.18 | 112% | 103% | 46.3% | 107% | 27% | 92.6% | 
C=C[C@]1(C)C=C2C[C@@H](OC(C)=O)[C@H]3C(C)(C)CCC[C@]3(C)[C@@]2(O)CC1 | -3.85% | 17.7% | < 4.00 | 76.9% | 76% | 7.9% | 68.8% | 9.03% | 82% | 
C=C[C@]1(C)C[C@@H](OC(=O)c2ccccc2)[C@H]2[C@](O)(C1=O)[C@H](OC(C)=O)C[C@H]1C(C)(C)[C@H](O)[C@H](OC(C)=O)[C@H](OC(=O)c3ccccc3)[C@@]12C |  |  |  |  |  |  |  |  |  | 4.94
C=C[C@]1(C)C=C2CC[C@H]3C(C)(C)C[C@H](O)[C@H](O)[C@]3(C)[C@@]2(O)CC1 | 20.8% | 18.1% | < 4.00 | 85.7% | 27.6% | 21% | 27.5% | 7.8% | 85.3% | 
C=C[C@]1(C)C=C2C[C@@H](O)[C@H]3C(C)(C)[C@H](O)C[C@H](O)[C@]3(C)[C@H]2CC1 | 24.1% | 9.01% | < 4.00 | 104% | 101% | 34.3% | 89.4% | 15.2% | 113% | 
C=C[C@]1(C)C=C2C(=O)C[C@H]3C(C)(C)CCC[C@]3(C)[C@@]2(O)CC1 | 41.6% | 33.3% | < 4.00 | 93.3% | 45.8% | 40.1% | 50.7% | 32.5% | 83.3% | 
C=C[C@]1(C)C=C2CC[C@H]3C(C)(C)C[C@H](O)[C@H](O)[C@]3(C)[C@H]2[C@H](O)C1 | 22.4% | 17.2% | < 4.00 | 65.7% | 66.5% | 37.1% | 60.9% | 11.1% | 50.9% | 
C=C[C@]1(C)C=C2CC[C@H]3C(C)(C)[C@H](O)C[C@H](O)[C@]3(C)[C@H]2CC1 | 33.8% | 5.57% | < 4.00 | 104% | 47.7% | 33.4% | 50% | 13.3% | 85.1% | 
C=C[C@]1(C)C[C@@H](OC(=O)c2ccccc2)[C@H]2[C@](O)(C1=O)[C@H](OC(C)=O)C[C@H]1C(C)(C)[C@H](OC(C)=O)[C@H](O)[C@H](OC(=O)c3ccccc3)[C@@]12C |  |  |  |  |  |  |  |  |  | 4.69
C=C[C@]1(C)C=C2[C@@H](O)C[C@H]3C(C)(C)CCC[C@]3(C)[C@@]2(O)CC1 | -5.96% | 18.4% | < 4.00 | 114% | 71.3% | 5.89% | 73.3% | 14.8% | 98.8% | 
C=C[C@]1(C)C=C2CC[C@H]3C(C)(C)CC[C@H](O)[C@]3(C)[C@H]2[C@H](O)C1 | 50.4% | 13.4% | 4.02 | 78.4% | 27.8% | 46.6% | 35.9% | 6.28% | 86.7% | 
C=C[C@]1(C)C=C2[C@H](O)C[C@H]3C(C)(C)CCC[C@]3(C)[C@H]2CC1 | 67.6% | 17.4% | 4.38 | 76.9% | 34.2% | 59.3% | 58.8% | 14.4% | 65.8% | 
C=C[C@@]1(C)C=C2CC[C@@H]3C(C)(C)C[C@@H](O)C[C@@]3(C)[C@@H]2CC1 | 81.8% | 3.43% | 4.31 | 97.5% | 4.35% | 50.8% | 114% | 7.09% | 115% | 
C=C[C@]1(C)C=C2C[C@@H](O)[C@H]3C(C)(C)CCC[C@]3(C)[C@@]2(OC)CC1 | 74.2% | 4.09% | 4.25 | 121% | 37.6% | 46.6% | 110% | 10.8% | 104% | 
C=C[C@@]1(C)C[C@@H](OC(=O)c2ccccc2)[C@@H]2[C@@]3(C)C=C(O)C(=O)C(C)(C)[C@@H]3C[C@@H](OC(C)=O)[C@@]2(O)C1=O |  |  |  |  |  |  |  |  |  | 4.84
C=C[C@]1(C)C=C2CC[C@H]3C(C)(C)C[C@H](O)[C@H](O)[C@]3(C)[C@H]2CC1 | 49.2% | 4.21% | 4.00 | 113% | 73.5% | 37.1% | 70.6% | 9.37% | 70.4% | 
